Data on two compounds can be found in patent US20240199755A1, “ANTAGONISTS AND AGONISTS OF THE TRANSFERRIN RECEPTOR-2 FOR USE IN THE TREATMENT OF DISEASES OF THE BONE” (Kymab Limited, priority 2018, published 2024).

The target in one assay is T1, Tfr2-ECD (Mus musculus, UniProt Q9JKX3).
T1 construct: full-length extracellular domain (ECD, aa 103-798) of murine Tfr2; His (N); MBP (N); c3 (protease site between MBP and ECD) (N); made in house; host or cells: Sf9 insect cells (baculovirus, pOCC211-Tfr2-ECD)
T1 sequence (Q9JKX3 103-798): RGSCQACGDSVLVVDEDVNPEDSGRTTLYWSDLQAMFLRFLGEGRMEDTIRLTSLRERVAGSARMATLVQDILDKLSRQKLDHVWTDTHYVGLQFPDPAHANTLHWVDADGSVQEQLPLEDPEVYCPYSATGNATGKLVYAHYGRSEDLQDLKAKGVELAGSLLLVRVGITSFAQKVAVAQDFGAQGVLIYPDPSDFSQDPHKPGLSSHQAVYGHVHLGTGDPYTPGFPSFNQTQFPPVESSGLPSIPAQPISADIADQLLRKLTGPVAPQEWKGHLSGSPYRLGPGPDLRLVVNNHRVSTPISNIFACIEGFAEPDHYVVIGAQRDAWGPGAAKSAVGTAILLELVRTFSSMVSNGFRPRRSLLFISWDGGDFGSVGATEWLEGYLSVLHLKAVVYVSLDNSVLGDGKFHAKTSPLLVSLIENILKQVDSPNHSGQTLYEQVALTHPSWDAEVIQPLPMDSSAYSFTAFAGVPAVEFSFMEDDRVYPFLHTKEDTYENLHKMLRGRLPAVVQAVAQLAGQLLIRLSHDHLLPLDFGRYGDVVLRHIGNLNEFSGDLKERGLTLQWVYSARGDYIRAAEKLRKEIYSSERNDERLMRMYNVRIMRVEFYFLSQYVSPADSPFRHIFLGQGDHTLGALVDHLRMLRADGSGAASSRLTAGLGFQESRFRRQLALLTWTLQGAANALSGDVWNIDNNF
Briefly: SPR binding of holo-Tf and BMP receptors to Tfr2-ECD immobilized on the sensor chip. Also on record: species or system murine. As to conditions: increasing holo-Tf concentrations without intermediate regeneration. The protocol:
For this purpose, Tfr2-ECD is immobilized on a Series S Sensor Chip C1 (GE Healthcare), by means of coupling the amino groups at 25° C. The carboxyl groups on the chip surface are activated for 7 minutes using a mixture of 196 mM 1-ethyl-3-(3-dimethylaminopropyl) carbodiimide-hydrochloride and 50 mM n-hydroxysuccinimide at a flow rate of 10 μl/min. Subsequently, 5 μg/ml Tfr2-ECD, diluted with sodium acetate buffer (pH 4.5), is injected at a flow rate of 5 μl/min up to a relative occupancy of 200 RU. Non-reacted groups are inactivated by injecting 1 M thanolamine-HCl (pH 8.5) for 7 minutes at a flow rate of 10 μl/min. In order to prepare a reference surface, the same procedure is carried out but without Tfr2-ECD being injected.
The binding assays are carried out at 37° C. at a flow rate of 30 μl/min. Each analyte is diluted by a running buffer (HBS-P, pH 7.4 together with 50 nM FeCl3). […] The values of the binding level are read out, relative to the baseline, 10 s before the end of the injection and are corrected with respect to the molar mass. […] The binding parameters are determined using the Biacore™ T100 evaluation software 2.03. […]
For binding analysis, an injection of analyte for 240 s or 300 s over a Tfr2-ECD surface was followed by 1000 s dissociation. The values of the binding levels were recorded from referenced signals 10 s before the end of injection relative to baseline response. […]
For orientation: In SPR one partner is held on a chip, and binding of the other changes the refractive index at the surface.

Assay [1] has as its target T2, BMP-2 binding to Tfr2-ECD (Homo sapiens, UniProt P12643).
T2 construct: full-length extracellular domain (ECD, aa 103-798) of murine Tfr2; His (N); MBP (N); c3 (protease site between MBP and ECD) (N); host or cells: Sf9 insect cells (Tfr2-ECD)
T2 sequence (P12643 283-396): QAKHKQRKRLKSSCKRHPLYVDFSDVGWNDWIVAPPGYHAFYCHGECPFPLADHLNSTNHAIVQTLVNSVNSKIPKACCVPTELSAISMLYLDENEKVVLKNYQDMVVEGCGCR
Briefly: SPR competition / sequential injection experiments on Tfr2-ECD surface. As to conditions: sequential injection of BMP-2 and holo-Tf. The protocol: The binding analysis was performed at 37° C. at a flow rate of 30 μl/min. […] In some experiments, 500 mM NaCl were used to reduce potential non-specific binding. […] Concentration-dependent binding of holo-Tf was performed without intermediate regeneration.

In assay [2] the test system is ERK (pERK) and p38 (pp38) signaling in osteoblasts. Description: Western blot of ERK and p38 activation in osteoblasts after anisomycin. The assay is classed as cell-based, mice. The note with it: 100 nM anisomycin for 20 min. As to the method:
(§1) Signaling studies: day 7 differentiated cells were treated with 50 ng/ml BMP-2, BMP-4 or BMP-6 for 0, 20, and 40 min and lysed in protein lysis buffer (at least two independent experiments with 3 n each). Anisomycin was used to activate MAPK signaling on day 7 differentiated osteoblasts. Cells were treated with 100 nM anisomycin for 20 min for subsequent protein analysis. For RNA isolation and detection of gene expression, cells were treated with different doses of anisomycin for 24 h (two independent experiments with 3 n each).
Cells were lysed in a buffer containing 20 mM Tris/HCl pH 7.4, 1% SDS, and a protease inhibitor (complete mini, Roche, Germany). To isolate protein from tissues, the protein fraction of the Trifast procedure was used and further processed according to the manufacturer's protocol. The protein concentration was determined using the BCA method (Pierce, Germany). Twenty μg of heatdenatured protein was loaded onto a 10% gel, separated, and transferred onto a 0.2 μm nitrocellulose membrane (Whatman, Germany). […]
A general note: Immunoblotting shows a protein as a band on a membrane.

Assay [3] deals with bone mass of Tfr2-/- mice. Briefly: Anisomycin treatment of WT and Tfr2-/- mice. The assay is classed as in vivo. As to conditions: 5 mg/kg anisomycin for 3 weeks.
Assay [4] concerns Sost mRNA expression in osteoblasts. Briefly: Sost mRNA expression (qPCR) in ex vivo differentiated osteoblasts after anisomycin. As to conditions: 100 nM anisomycin, 24 h. The assay is classed as cell-based, mice. As to the method: Primary murine osteoblasts were differentiated from the bone marrow using standard osteogenic medium in DMEM with 10% FCS, 1% penicillin/streptomycin (Life Technologies, Germany). RNA was isolated at various time points and day 7 osteoblasts were used for immunofluorescence analysis of Tfr2 and for the deep sequencing analysis.
as §1
RNA from cell cultures was isolated with the High Pure RNA Isolation Kit (Roche) and RNA from the bones of mice was isolated by crushing flushed bones (femur and tibia) in liquid nitrogen and collecting the bone powder in Trifast (Peqlab, Germany). Other organs were homogenized directly in Trifast using an ultraturrax (IKA, Germany). […] The results were calculated using the ΔΔCT method and are presented in x-fold increase relative to β-actin (or GAPDH where indicated) mRNA levels.
For orientation: Quantitative PCR measures a nucleic acid by following its amplification.

In the case of “Holo-Tf: holo-transferrin, the only known Tfr2 ligand”, in the assay with Tfr2-ECD, the “Kd value of holo-Tf binding to Tfr2” value is “micromolar range”. Besides, in assay [1], the “Competition with BMP-2 for binding to Tfr2” value is on record as “did not compete”.

As for `COc1ccc(C[C@H]2NC[C@H](O)[C@H]2OC(C)=O)cc1` [anisomycin], the “ERK and p38 phosphorylation” value in assay [2] was “induced ERK and p38 phosphorylation”. Further, the “Osteoclast numbers (Oc.S/BS)” value in assay [3] was “not altered”. Besides, in assay [3] (Tfr2-/- mice), the “Bone volume (BV/TV of the fourth lumbar vertebrae)” value is on record as “decreased bone volume back to WT levels”, the “Osteoblast numbers (N.Ob/B.Pm)” value was “reduced” and the “Serum levels of sclerostin” value is on record as “increased”. The “Increase of Sost mRNA expression” value in assay [4] (Tfr2 osteoblasts) is recorded as 19 fold. The “Increase of Sost mRNA expression” value in assay [4] (WT osteoblasts) came to 14 fold.
